Results reported in PubChem BioAssay (NCI).
Where “and” joins values, the source holds several entries; their conditions need not be identical. Equal values may be shown once.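 Assay format: 96-well plates, 48-hour exposure. Abbreviation: GI50, concentration required for 50% inhibition of growth. TGI denotes the concentration required for complete inhibition of growth.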

Key:
Assay in all cases: DTP human tumour cell line panel, 48 h
HOP-62 NSCLC = tested on: HOP-62 NSCLC
HOP-92 NSCLC = tested on: HOP-92 NSCLC
HT29 colon = tested on: HT29 colon
M19-MEL melanoma = tested on: M19-MEL melanoma
OVCAR-5 ovarian = tested on: OVCAR-5 ovarian
SF-295 CNS = tested on: SF-295 CNS
SNB-19 CNS = tested on: SNB-19 CNS
UACC-257 melanoma = tested on: UACC-257 melanoma
KM12 colon = tested on: KM12 colon
RXF 393 renal = tested on: RXF 393 renal
XF 498 CNS = tested on: XF 498 CNS

Row | SMILES | TGI (HOP-62 NSCLC) | TGI (HOP-92 NSCLC) [µM] | TGI (HT29 colon) | TGI (M19-MEL melanoma) [µM] | TGI (OVCAR-5 ovarian) | TGI (SF-295 CNS) | TGI (SNB-19 CNS) | TGI (UACC-257 melanoma) | TGI (KM12 colon) | TGI (RXF 393 renal) | TGI (XF 498 CNS) [µM] | GI50 (HOP-62 NSCLC) [µM] | GI50 (HT29 colon) [µM] | GI50 (KM12 colon) [µM] | GI50 (OVCAR-5 ovarian) [µM] | GI50 (RXF 393 renal) [µM] | GI50 (SF-295 CNS) [µM] | GI50 (SNB-19 CNS) [µM] | GI50 (UACC-257 melanoma) [µM]
1 | O=C1CN(c2ccccc2)C(=O)C1C(=O)Nc1ccc(Cl)c(Cl)c1 (stereo unspecified) | 6.33 µM | 14.5 | 17.2 µM | 14.8 | 50.6 µM | 14 µM | 17.2 µM | 22.7 µM |  |  |  |  |  |  |  |  |  |  | 
2 | COc1ccc(C(=C2C(=O)OC(=O)C2=C(C)C)c2ccc(OC)cc2)cc1 | > 100 µM | > 100 | > 100 µM |  | > 100 µM | > 100 µM | > 100 µM | > 100 µM | > 100 µM | > 100 µM |  |  |  |  |  |  |  |  | 
3 | OC(CCN1CCN(CCOC(c2ccc(F)cc2)c2ccc(F)cc2)CC1)c1ccc(Br)cc1 (stereo unspecified) | 14.5 µM | 13.7 | 12.7 µM |  | 29.4 µM | 9.73 µM | 21.2 µM | 4.61 µM | 8.07 µM | 10 µM |  |  |  |  |  |  |  |  | 
4 | O=c1cccc2n1CC1CNCC2C1 (stereo unspecified) | > 100 µM | > 100 | > 100 µM |  | > 100 µM | > 100 µM | > 100 µM | > 100 µM | > 100 µM | > 100 µM |  |  |  |  |  |  |  |  | 
5 | C[C@@](Br)(C(=O)O)[C@H](Br)C(=O)O | > 100 µM | > 100 | > 100 µM |  | > 100 µM | > 100 µM | > 100 µM | > 100 µM | > 100 µM | > 100 µM |  |  |  |  |  |  |  |  | 
6 | Cn1c2ccccc2c2c3c(=O)[nH][nH]c(=O)c3c3c4ccccc4n(C)c3c21 | > 100 µM | > 100 | > 100 µM |  | > 100 µM | > 100 µM | > 100 µM | > 100 µM | > 100 µM | > 100 µM |  |  |  |  |  |  |  |  | 
7 | Brc1ccc(/C(N=N/C(=N\Sc2ccccc2)c2ccc(Br)cc2)=N/Sc2ccccc2)cc1 | > 100 µM | > 100 | > 100 µM |  | > 100 µM | > 100 µM | > 100 µM | > 100 µM | > 100 µM | > 100 µM |  |  |  |  |  |  |  |  | 
8 | COc1cc2c3cc1Oc1cc(ccc1O)C[C@@H]1c4c(cc(OC)c(O)c4Oc4ccc(cc4)C[C@@H]3[N+](C)(C)CC2)CC[N+]1(C)C | > 100 µM | > 100 | > 100 µM |  | > 100 µM | 50.5 µM | > 100 µM | > 100 µM | > 100 µM | 47 µM |  |  |  |  |  |  |  |  | 
9 | O=C1CCC(CCc2nc3ccccc3[nH]2)(c2ccccc2)C(=O)N1 (stereo unspecified) | > 100 µM | > 100 | > 100 µM |  | > 100 µM | > 100 µM | > 100 µM | > 100 µM | > 100 µM | > 100 µM |  |  |  |  |  |  |  |  | 
10 | CCc1nc2c([nH]1)C(=O)c1ccccc1C2=O | > 100 µM |  | > 100 µM | 31.8 | > 100 µM | > 100 µM | > 100 µM | 78 µM | > 100 µM | > 100 µM | 67.1 |  |  |  |  |  |  |  | 
11 | O=C(O)CCSc1ncnc2nc[nH]c12 | > 100 µM | 96.3 | > 100 µM |  | > 100 µM | > 100 µM | > 100 µM | > 100 µM | > 100 µM | > 100 µM |  |  |  |  |  |  |  |  | 
12 | COC(=O)c1ccc2cc(O)ccc2c1 | > 100 µM | > 100 | > 100 µM |  | > 100 µM | > 100 µM | > 100 µM | > 100 µM | > 100 µM | > 100 µM |  |  |  |  |  |  |  |  | 
13 | O=C(CCl)Nc1ccc(C(=O)N/N=C/c2ccc(Cl)cc2)cc1 | 3.45 µM and 14.7 µM | 4.53 | 3.18 µM and 4.61 µM | 25.6 | 3.6 µM and 33.1 µM | 3.1 µM and 9.23 µM | 5.74 µM and 20.1 µM | 3.73 µM and 25 µM | 3.84 µM and 2.74 µM | 2.39 µM and 6.52 µM | 3 | 1.74 | 2.25 | 1.84 | 1.98 | 2.09 | 1.65 | 3.09 | 12.2
14 | CC(=O)Nc1ccc2c(c1)nc1c3ccccc3ccn21 | > 100 µM | > 100 | > 100 µM |  | > 100 µM | > 100 µM | > 100 µM | > 100 µM | > 100 µM | > 100 µM |  |  |  |  |  |  |  |  | 
15 | CC(C)(C)C#CI1OC(=O)c2ccccc21 | 27.2 µM | 5.78 | 22.8 µM |  | 21.9 µM | 28.2 µM | 22.9 µM | 25.7 µM | 18.4 µM | 30.4 µM |  |  |  |  |  |  |  |  | 
16 | O=c1ccn([C@@H]2C=C(CO)[C@@H](O)[C@H]2O)c(=O)[nH]1 | > 625 µM | > 625 | > 625 µM |  |  | > 625 µM | > 625 µM |  | > 625 µM | > 625 µM | < 0.0625 |  |  |  |  |  |  |  | 
17 | O=C1CCCC2=C1CC1=C(CCCC1=O)N2c1ccc(-c2ccccc2)cc1 | > 100 µM | > 100 | > 100 µM |  | > 100 µM | > 100 µM | > 100 µM | > 100 µM | > 100 µM | > 58.9 µM |  |  |  |  |  |  |  |  | 
18 | O=C(/C=C/CC(O)(c1ccccc1)c1ccccc1)Nc1ccccc1Cl | > 100 µM | > 100 | > 100 µM | > 100 | > 100 µM | > 100 µM | > 100 µM | > 100 µM | > 100 µM |  |  |  |  |  |  |  |  |  | 
19 | Brc1ccc2[nH]cc(-c3csc(-c4c[nH]c5ccc(Br)cc45)n3)c2c1 | 13.7 µM | 4.64 | 3.16 µM |  | 5.6 µM | 6.32 µM | 7.61 µM | 9.05 µM | 2.95 µM | 6.13 µM |  |  |  |  |  |  |  |  | 
20 | Cc1cccc2c(N)c3cccc(C(=O)NCC[N+](C)(C)[O-])c3nc12 | 36.5 µM | 92.8 | 60.3 µM |  | 27.6 µM | 45.4 µM | > 100 µM | 60.3 µM | > 100 µM | 27.5 µM |  |  |  |  |  |  |  |  | 
21 | CN(C)CN1C(=O)/C(=N\n2c(-c3ccncc3)n[nH]c2=S)c2ccccc21 | 84.7 µM | > 100 | 61.5 µM |  | > 100 µM | > 100 µM | > 100 µM | 32.9 µM | > 100 µM | 32.4 µM |  |  |  |  |  |  |  |  | 
22 | COC(=O)[C@@H]1[C@H]2CC[C@]3(C)[C@@H](OC(C)=O)CC[C@H]3[C@@H]2CC[C@H]1C1(C)SCCS1 | 53.6 µM | 47.9 | 30 µM |  | 50.8 µM | 73.6 µM | > 100 µM | 53.3 µM | 74.2 µM | 40.6 µM |  |  |  |  |  |  |  |  | 
23 | O=C1c2cccnc2C(=O)c2c1nc1ccccc1c2-c1ccc2c3c(nc4ccccc42)C(=O)c2cccnc2-c13 | 22.9 µM | 30.5 | 7.57 µM |  | 33.6 µM | 7.68 µM | 7.92 µM | 5.38 µM | 12.5 µM | 9.68 µM |  |  |  |  |  |  |  |  | 
